Data reported in patent publication US8580768B2, “Cannabinoid receptor antagonists-inverse agonists useful for treating metabolic disorders, including obesity and diabetes” (Jenrin Discovery, Inc., priority 2010, dated 2013).

System: not given
Assay: not given
Conditions: type 2 diabetes patients not on other anti-diabetic medications; six months of treatment; baseline value 7.9; placebo reduction 0.3%; cited from earlier work

| Compound | HbA1c levels lowered [%] |
| --- | --- |
| Cc1c(C(=O)NN2CCCCC2)nn(-c2ccc(Cl)cc2Cl)c1-c1ccc(Cl)cc1 [rimonabant] | 0.8 |

Target: T1, human cannabinoid CB1 receptor (Homo sapiens, UniProt P21554)
T1 construct: expressed in transfected cells; host or cells: Chinese hamster ovary (CHO) cells, stably transfected; membrane preparations
Assay: CB1 receptor affinity, [3H]CP-55,940 radioligand displacement on CHO cell membrane preparations
Format: binding
Conditions: not given
Method: CB1 receptor affinities can be determined using membrane preparations of Chinese hamster ovary (CHO) cells in which the human cannabinoid CB1 receptor is stably transfected (Biochem J. 1991, 279, 129-134) in conjunction with [3H]CP-55,940 as radioligand. After incubation of a freshly prepared cell membrane preparation with the [3H]-radioligand, with or without addition of test compound, separation of bound and free ligand is performed by filtration over glass fiber filters. Radioactivity on the filter is measured by liquid scintillation counting. The IC50 values can be determined from at least three independent measurements.
The CB1 IC50 values for tested compounds are as follows.

T1 sequence (P21554 whole entry): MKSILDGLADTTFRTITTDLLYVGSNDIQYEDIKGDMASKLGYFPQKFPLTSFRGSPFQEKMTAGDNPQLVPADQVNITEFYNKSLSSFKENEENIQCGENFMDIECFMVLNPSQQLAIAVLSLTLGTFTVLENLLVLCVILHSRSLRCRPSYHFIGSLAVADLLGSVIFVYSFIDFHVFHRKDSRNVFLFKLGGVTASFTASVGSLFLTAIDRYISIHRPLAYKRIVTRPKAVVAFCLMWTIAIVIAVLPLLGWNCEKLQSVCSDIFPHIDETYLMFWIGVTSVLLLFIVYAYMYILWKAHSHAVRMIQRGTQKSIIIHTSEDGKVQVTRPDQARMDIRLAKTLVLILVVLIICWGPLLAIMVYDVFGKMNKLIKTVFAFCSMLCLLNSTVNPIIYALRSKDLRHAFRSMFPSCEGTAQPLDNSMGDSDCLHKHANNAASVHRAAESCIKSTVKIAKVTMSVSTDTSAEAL

| Compound | IC50 [µM] |
| --- | --- |
| CCOP(=O)(OCC)C(C)NC(=NS(=O)(=O)c1ccc(Cl)cc1)N1CC(c2ccccc2)C(c2ccc(Cl)cc2)=N1 (stereo not shown) [compound 28] | 1 to 10 |

Same assay, conditions: read-out: CB1 IC50

| Compound | IC50 [µM] |
| --- | --- |
| CC(NC(=NS(=O)(=O)c1cccc(C#N)c1)N1CC(c2ccccc2)C(c2ccc(Cl)cc2)=N1)C(N)=O (stereo not shown) [compound 16] | < 0.1 |
| CC(O)C(NC(=NS(=O)(=O)c1ccc(Cl)cc1)N1CC(c2ccccc2)C(c2ccc(Cl)cc2)=N1)C(N)=O (stereo not shown) [compound 7] | < 0.1 |
| COc1cccc(S(=O)(=O)N=C(NC(C)C(N)=O)N2CC(c3ccccc3)C(c3ccc(Cl)cc3)=N2)c1 (stereo not shown) [compound 18] | < 0.1 |
| COC(=O)C=CCNC(=NS(=O)(=O)c1ccc(Cl)cc1)N1CC(c2ccccc2)C(c2ccc(Cl)cc2)=N1 (stereo not shown) [compound 24] | < 0.1 |
| COc1cccc(S(=O)(=O)N=C(NC(C(N)=O)C2CC2)N2CC(c3ccccc3)C(c3ccc(Cl)cc3)=N2)c1 (stereo not shown) [compound 21] | 0.1 to 1 |
| CC(O)C(NC(=NS(=O)(=O)c1cccc(C(=N)N)c1)N1CC(c2ccccc2)C(c2ccc(Cl)cc2)=N1)C(N)=O (stereo not shown) [compound 13] | < 0.1 |
| CC(O)C(NC(=NS(=O)(=O)c1ccc(Cl)cc1)N1CC(c2ccccc2)C(c2ccc(Cl)cc2)=N1)C(=O)NCCS(N)(=O)=O (stereo not shown) [compound 25] | < 0.1 |
| COc1ccc(C2=NN(C(=NS(=O)(=O)c3ccc(Cl)cc3)NCCS(N)(=O)=O)CC2c2ccccc2)cc1 (stereo not shown) [compound 20] | < 0.1 |
| N#Cc1cccc(S(=O)(=O)N=C(NC(C(N)=O)C2CCC2)N2CC(c3ccccc3)C(c3ccc(Cl)cc3)=N2)c1 (stereo not shown) [compound 22] | < 0.1 |
| NC(CCNC(=NS(=O)(=O)c1ccc(Cl)cc1)N1CC(c2ccccc2)C(c2ccc(Cl)cc2)=N1)=NO (stereo not shown) [compound 8] | < 0.1 |
| COc1cccc(S(=O)(=O)N=C(NC2(C(N)=O)CCC2)N2CC(c3ccccc3)C(c3ccc(Cl)cc3)=N2)c1 (stereo not shown) [compound 10] | < 0.1 |
| NC(=O)C(CO)NC(=NS(=O)(=O)c1ccc(Cl)cc1)N1CC(c2ccccc2)C(c2ccc(Cl)cc2)=N1 (stereo not shown) [compound 2] | < 0.1 |
| CC(C)C(NC(=NS(=O)(=O)c1cccc(C(N)=O)c1)N1CC(c2ccccc2)C(c2ccc(Cl)cc2)=N1)C(N)=O (stereo not shown) [compound 4] | 0.1 to 1 |
| NC(CNC(=NS(=O)(=O)c1ccc(Cl)cc1)N1CC(c2ccccc2)C(c2ccc(Cl)cc2)=N1)=NO (stereo not shown) [compound 6] | < 0.1 |
| COc1ccc(C2=NN(C(=NS(=O)(=O)c3ccc(Cl)cc3)NC(C)C(N)=O)CC2c2ccccc2)cc1 (stereo not shown) [compound 1] | < 0.1 |
| N#Cc1cccc(S(=O)(=O)N=C(NC2(C(N)=O)CCC2)N2CC(c3ccccc3)C(c3ccc(Cl)cc3)=N2)c1 (stereo not shown) [compound 17] | < 0.1 |
| N#Cc1cccc(S(=O)(=O)N=C(NCCS(N)(=O)=O)N2CC(c3ccccc3)C(c3ccc(Cl)cc3)=N2)c1 (stereo not shown) [compound 15] | < 0.1 |
| NS(=O)(=O)CCNC(=O)C(CO)NC(=NS(=O)(=O)c1ccc(Cl)cc1)N1CC(c2ccccc2)C(c2ccc(Cl)cc2)=N1 (stereo not shown) [compound 26] | < 0.1 |
| CC(C)C(NC(=NS(=O)(=O)c1cccc(C(=N)N)c1)N1CC(c2ccccc2)C(c2ccc(Cl)cc2)=N1)C(N)=O (stereo not shown) [compound 9] | 0.1 to 1 |
| COc1cccc(S(=O)(=O)N=C(NCCS(N)(=O)=O)N2CC(c3ccccc3)C(c3ccc(Cl)cc3)=N2)c1 (stereo not shown) [compound 14] | < 0.1 |
| NS(=O)(=O)CCNC(=O)CNC(=NS(=O)(=O)c1ccc(Cl)cc1)N1CC(c2ccccc2)C(c2ccc(Cl)cc2)=N1 (stereo not shown) [compound 23] | < 0.1 |
| CC(C)C(NC(=NS(=O)(=O)c1cccc(C#N)c1)N1CC(c2ccccc2)C(c2ccc(Cl)cc2)=N1)C(N)=O (stereo not shown) [compound 5] | < 0.1 |
| CC(O)C(NC(=NS(=O)(=O)c1cccc(C#N)c1)N1CC(c2ccccc2)C(c2ccc(Cl)cc2)=N1)C(N)=O (stereo not shown) [compound 12] | < 0.1 |
| NC(=O)Cc1csc(NC(=NS(=O)(=O)c2ccc(Cl)cc2)N2CC(c3ccccc3)C(c3ccc(Cl)cc3)=N2)n1 (stereo not shown) [compound 27] | 1 to 10 |
| CC(O)C(NC(=NS(=O)(=O)c1ccc(Cl)cc1)N1CC(c2ccccc2)C(c2ccc(Cl)cc2)=N1)C(=O)NC(CO)C(N)=O (stereo not shown) [compound 11] | < 0.1 |
| NS(=O)(=O)CCNC(=NS(=O)(=O)c1ccc(Cl)cc1)N1CC(c2ccccc2)C(c2ccc(Cl)cc2)=N1 (stereo not shown) [compound 3] | < 0.1 |
